Results on 19 compounds are retold here after patent publication US10479795B2 (Incyte Corporation, priority 2016, dated 2019).

In test [1] the test system is Phosphorylated Ribosomal Protein S6 (RPS6). The experiment in a line: THP-1 RPS6 ELISA Assay. The format is cell-based, Human. The note with it: THP-1 cells, read-out: PI3Kγ_THP1_RPS6_ELISA IC50. In short, it runs like this:
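Serum-starved THP-1 cells were preincubated with a concentration range of compound for 2 h at 37 °C, then stimulated with 10 nM MCP-1 for 15 min. Phospho-RPS6 in lysates was quantified by ELISA at 450 nm. IC50 came from percent inhibition versus log inhibitor concentration.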
In general terms: An ELISA detects its analyte on a solid surface through an enzyme-linked reagent.

Test [2] addresses PI3Kγ (p110γ) Recombinant Human Protein (Homo sapiens (Human), UniProt P48736). The test can be described thus: PI3K-γ Scintillation Proximity Assay. The conditions noted are these: read-out: PI3Kγ IC50. It is filed as biochemical. In short, it runs like this: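 Recombinant human p110γ assayed at room temperature in 20 mM MOPS pH 6.7, 10 mM MgCl2, 5 mM DTT, 0.03% CHAPS, 2% DMSO, with 20 μM PIP2 and 2 μM ATP plus [γ-33P]ATP. Product captured on WGA SPA beads overnight and counted; IC50 fitted from % of solvent-control activity versus log inhibitor concentration.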

Test [3] concerns the target PI3Kδ (p110δ/p85α) Recombinant Human Protein (Homo sapiens (Human), UniProt O00329). The experiment in a line: PI3Kδ Scintillation Proximity Assay. It is filed as biochemical. In short, it runs like this:
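Recombinant human p110δ/p85α (3.4 nM) with 20 μM PIP2 and 2 μM ATP plus [γ-33P]ATP, in 20 mM MOPS pH 6.7, 10 mM MgCl2, 5 mM DTT, 0.03% CHAPS, 2% DMSO; 120 min at room temperature. Product captured on WGA SPA beads, scintillation counted; IC50 from percent-of-control curves.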
In general terms: Scintillation proximity formats need no separation of bound from free tracer.

Each structure is given as a SMILES string. Structures can show the parent of a compound that is named as a salt. Where two headings read alike, the source gives them in different places.

PI3Kγ (p110γ) Recombinant Human Protein, sequence (P48736 whole entry): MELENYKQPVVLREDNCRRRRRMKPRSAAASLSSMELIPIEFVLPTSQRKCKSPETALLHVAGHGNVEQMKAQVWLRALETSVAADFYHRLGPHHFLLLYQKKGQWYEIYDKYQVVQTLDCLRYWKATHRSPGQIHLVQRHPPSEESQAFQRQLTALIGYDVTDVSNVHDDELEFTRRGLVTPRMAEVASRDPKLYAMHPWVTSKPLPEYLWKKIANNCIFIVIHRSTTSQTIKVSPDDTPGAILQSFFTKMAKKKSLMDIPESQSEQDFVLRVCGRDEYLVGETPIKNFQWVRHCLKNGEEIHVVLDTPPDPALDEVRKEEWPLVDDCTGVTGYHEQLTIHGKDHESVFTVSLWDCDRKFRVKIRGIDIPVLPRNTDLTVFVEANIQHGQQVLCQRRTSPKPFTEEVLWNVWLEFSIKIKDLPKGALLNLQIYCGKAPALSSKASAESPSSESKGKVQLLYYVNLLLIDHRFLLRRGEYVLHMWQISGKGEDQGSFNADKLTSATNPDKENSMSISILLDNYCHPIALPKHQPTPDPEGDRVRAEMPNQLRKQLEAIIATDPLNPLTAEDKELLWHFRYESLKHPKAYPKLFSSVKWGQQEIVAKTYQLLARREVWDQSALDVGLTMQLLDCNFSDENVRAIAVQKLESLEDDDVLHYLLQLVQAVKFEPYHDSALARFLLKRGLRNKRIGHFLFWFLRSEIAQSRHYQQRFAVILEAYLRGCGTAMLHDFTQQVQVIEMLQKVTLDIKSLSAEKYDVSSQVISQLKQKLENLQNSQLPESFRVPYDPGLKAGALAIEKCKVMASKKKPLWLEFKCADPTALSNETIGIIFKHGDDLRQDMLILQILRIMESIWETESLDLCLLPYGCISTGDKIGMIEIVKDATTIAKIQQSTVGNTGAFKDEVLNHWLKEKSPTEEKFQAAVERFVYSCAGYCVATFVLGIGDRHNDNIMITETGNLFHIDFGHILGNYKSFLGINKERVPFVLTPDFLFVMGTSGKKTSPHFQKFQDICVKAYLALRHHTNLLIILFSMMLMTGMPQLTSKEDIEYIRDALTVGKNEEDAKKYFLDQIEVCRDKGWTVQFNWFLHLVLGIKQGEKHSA
PI3Kδ (p110δ/p85α) Recombinant Human Protein, sequence (O00329 whole entry): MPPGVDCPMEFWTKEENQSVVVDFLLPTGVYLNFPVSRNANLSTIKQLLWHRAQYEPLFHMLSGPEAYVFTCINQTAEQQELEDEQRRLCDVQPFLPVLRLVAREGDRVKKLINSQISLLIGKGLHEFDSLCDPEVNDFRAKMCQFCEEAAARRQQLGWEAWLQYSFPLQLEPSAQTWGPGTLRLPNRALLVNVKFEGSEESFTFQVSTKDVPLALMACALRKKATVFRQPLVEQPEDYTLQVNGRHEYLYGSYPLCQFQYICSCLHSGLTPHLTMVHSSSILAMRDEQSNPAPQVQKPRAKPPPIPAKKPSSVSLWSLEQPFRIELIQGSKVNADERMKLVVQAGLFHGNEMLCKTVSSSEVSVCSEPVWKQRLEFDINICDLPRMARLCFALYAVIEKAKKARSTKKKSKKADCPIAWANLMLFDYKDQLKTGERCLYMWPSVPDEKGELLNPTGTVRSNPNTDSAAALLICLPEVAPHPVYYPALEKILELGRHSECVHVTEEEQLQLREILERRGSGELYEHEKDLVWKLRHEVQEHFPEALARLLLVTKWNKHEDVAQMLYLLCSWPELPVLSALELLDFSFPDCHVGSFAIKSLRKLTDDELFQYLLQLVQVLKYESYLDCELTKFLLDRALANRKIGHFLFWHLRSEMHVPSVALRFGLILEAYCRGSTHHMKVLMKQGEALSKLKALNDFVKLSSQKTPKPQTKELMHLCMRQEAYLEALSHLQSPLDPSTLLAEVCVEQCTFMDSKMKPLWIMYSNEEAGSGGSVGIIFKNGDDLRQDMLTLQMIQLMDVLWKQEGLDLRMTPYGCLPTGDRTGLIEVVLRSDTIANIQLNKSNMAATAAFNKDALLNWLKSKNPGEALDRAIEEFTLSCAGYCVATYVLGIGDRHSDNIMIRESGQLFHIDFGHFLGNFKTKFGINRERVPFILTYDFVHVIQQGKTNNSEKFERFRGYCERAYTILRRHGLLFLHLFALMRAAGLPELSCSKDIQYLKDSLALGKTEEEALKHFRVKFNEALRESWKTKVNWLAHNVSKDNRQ
PI3Kδ (p110δ/p85α) Recombinant Human Protein, sequence (P27986 whole entry partner): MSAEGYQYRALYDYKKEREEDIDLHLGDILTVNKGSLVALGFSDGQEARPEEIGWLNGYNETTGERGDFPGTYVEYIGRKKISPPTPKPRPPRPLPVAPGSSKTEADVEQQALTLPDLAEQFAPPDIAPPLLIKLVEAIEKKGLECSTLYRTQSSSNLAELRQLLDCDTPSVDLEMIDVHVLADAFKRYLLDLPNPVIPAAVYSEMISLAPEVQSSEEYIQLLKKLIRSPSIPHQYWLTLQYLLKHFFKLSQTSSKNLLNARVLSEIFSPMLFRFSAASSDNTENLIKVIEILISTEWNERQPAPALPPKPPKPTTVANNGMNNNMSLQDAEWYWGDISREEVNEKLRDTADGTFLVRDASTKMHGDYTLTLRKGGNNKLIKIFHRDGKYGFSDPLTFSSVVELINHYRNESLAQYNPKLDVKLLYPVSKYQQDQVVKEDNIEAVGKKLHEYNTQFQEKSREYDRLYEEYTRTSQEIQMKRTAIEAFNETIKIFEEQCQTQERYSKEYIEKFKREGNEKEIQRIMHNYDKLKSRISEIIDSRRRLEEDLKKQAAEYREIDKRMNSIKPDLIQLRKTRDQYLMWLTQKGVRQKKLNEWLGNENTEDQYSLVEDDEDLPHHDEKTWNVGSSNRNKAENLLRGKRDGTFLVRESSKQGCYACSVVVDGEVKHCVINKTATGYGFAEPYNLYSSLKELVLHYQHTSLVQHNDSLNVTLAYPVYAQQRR

In general, IC50 refers to the point on the concentration scale where inhibition reaches its midpoint. Turning to `COC(=O)C12CC(NS(=O)(=O)c3ccc(C)c(-c4cnc5c(N)nc(C(F)(F)F)cn45)c3)(C1)C2` [Example 277, Methyl 3-(3-(8-amino-6-(trifluoromethyl)imidazo[1,2-a]pyrazin-3-yl)-4-methylphenylsulfonamido)bicyclo[1.1.1]pentane-1-carboxylate trifluoroacetate salt], the half-inhibitory concentration (IC50) in test [1] (Homo sapiens) was below 100 nM; in test [2], below 100 nM; in test [3], 100 to 500 nM.

On to `C[C@]1(O)CC[C@H](NS(=O)(=O)c2cc(-c3cnc4c(N)nc(-c5ccccc5F)cn34)ccc2F)CC1` [Example 421, 5-(8-amino-6-(2-fluorophenyl)imidazo[1,2-a]pyrazin-3-yl)-2-fluoro-N-((1r,4r)-4-hydroxy-4-methylcyclohexyl)benzenesulfonamide], for which the IC50 in test [1], in test [2] and in test [3] was below 100 nM each time.

For `Cc1ccc(S(=O)(=O)NCC2(C)COC2)cc1-c1cnc2c(N)nccn12` [Example 15, 3-(8-Aminoimidazo[1,2-a]pyrazin-3-yl)-4-methyl-N-[(3-methyloxetan-3-yl)methyl]benzenesulfonamide trifluoroacetate], the IC50 in test [1] (Homo sapiens) was above 1000 nM; in test [2] it was below 100 nM; in test [3] it was 500 to 2000 nM.

Take `Cc1ccc(-c2cn3c(-c4cc(S(=O)(=O)N[C@H]5CC[C@H](O)CC5)ccc4C)cnc3c(N)n2)cc1` [Example 18, 3-[8-Amino-6-(4-methylphenyl)imidazo[1,2-a]pyrazin-3-yl]-N-(trans-4-hydroxycyclohexyl)-4-methylbenzenesulfonamide]: the IC50 in test [1] (Homo sapiens) was below 100 nM; in test [2], below 100 nM; in test [3], 100 to 500 nM.

Turning to `Cc1ccc(S(=O)(=O)N[C@H]2CC[C@H](N)CC2)cc1-c1cnc2c(N)nccn12` [Example 58, N-(trans-4-Aminocyclohexyl)-3-(8-aminoimidazo[1,2-a]pyrazin-3-yl)-4-methylbenzenesulfonamide], the IC50 in test [1] (Homo sapiens) was above 1000 nM; in test [2] it was 100 to 500 nM; in test [3], 500 to 2000 nM.

As to `Cc1ccc(S(=O)(=O)NC23CC(CO)(C2)C3)cc1-c1cnc2c(N)nc(C(F)(F)F)nn12` [Example 319, 3-(4-Amino-2-(trifluoromethyl)imidazo[1,2-f][1,2,4]triazin-7-yl)-N-(3-(hydroxymethyl)bicyclo[1.1.1]pentan-1-yl)-4-methylbenzenesulfonamide], the IC50 in test [1] was below 100 nM; in test [2], below 100 nM; in test [3] it was 100 to 500 nM.

Consider `Cc1ccc(-c2cnc3c(N)nccn23)cc1S(=O)(=O)N[C@H]1CC[C@H](O)CC1` [Example 41, 5-(8-Aminoimidazo[1,2-a]pyrazin-3-yl)-N-(trans-4-hydroxycyclohexyl)-2-methylbenzenesulfonamide], for which the figures for the half-maximal inhibitory concentration (IC50) in test [1] (Homo sapiens), in test [2] and in test [3] were above 1000 nM, below 100 nM and 100 to 500 nM, respectively.

For the compound `Cc1cn2c(-c3cc(S(=O)(=O)NC45CCC(CO)(C4)C5)ccc3C)cnc2c(N)n1` [Example 262, 3-(8-Amino-6-methylimidazo[1,2-a]pyrazin-3-yl)-N-(4-(hydroxymethyl)bicyclo[2.1.1]hexan-1-yl)-4-methylbenzenesulfonamide], the figures for the IC50 in test [1] (Homo sapiens), in test [2] and in test [3] were 100 to 500 nM, below 100 nM and below 100 nM, respectively.

Turning to `Cc1ccc(S(=O)(=O)N2CC3(CC(O)C3)C2)cc1-c1cnc2c(N)nc(C(F)(F)F)nn12` [Example 343, 2-((3-(4-amino-2-(trifluoromethyl)imidazo[2,1-f][1,2,4]triazin-7-yl)-4-methylphenyl)sulfonyl)-2-azaspiro[3.3]heptan-6-ol TFA], the IC50 in test [1] (Homo sapiens), in test [2] and in test [3] was below 100 nM throughout.

For `Cc1ccc(S(=O)(=O)N[C@H]2C[C@H](C#N)C2)cc1-c1cnc2c(N)ncnn12` [Example 89, 3-(4-Aminoimidazo[1,2-f][1,2,4]triazin-7-yl)-N-((1r,3r)-3-cyanocyclobutyl)-4-methylbenzenesulfonamide trifluoroacetate salt], the IC50 in test [1] was below 100 nM; in test [2] it was below 100 nM; in test [3], 100 to 500 nM.

On to `Cc1ccc(S(=O)(=O)N[C@H]2CC[C@H](O)CC2)cc1-c1cnc2c(N)nc(C(F)(F)F)cn12` [Example 310, 3-(8-Amino-6-(trifluoromethyl)imidazo[1,2-a]pyrazin-3-yl)-N-(trans-4-hydroxycyclohexyl)-4-methylbenzenesulfonamide], for which the IC50 in test [1] (Homo sapiens) is below 100 nM; in test [2], below 100 nM; in test [3] it was 100 to 500 nM.

Turning to `Cc1ccc(S(=O)(=O)NC2CN(C3COC3)C2)cc1-c1cnc2c(N)nc(C(F)(F)F)nn12` [Example 337, 3-(4-Amino-2-(trifluoromethyl)imidazo[1,2-f][1,2,4]triazin-7-yl)-4-methyl-N-(1-(oxetan-3-yl)azetidin-3-yl)benzenesulfonamide trifluoroacetate salt], the IC50 is 100 to 500 nM in test [1], below 100 nM in test [2] and 100 to 500 nM in test [3].

Turning to `Cc1ccc(S(=O)(=O)N[C@H]2C[C@](O)(C(F)(F)F)C2)cc1-c1cnc2c(N)ncnn12` [Example 140, 3-(4-aminoimidazo[2,1-f][1,2,4]triazin-7-yl)-N-((1S,3S)-3-hydroxy-3-(trifluoromethyl)cyclobutyl)-4-methylbenzenesulfonamide], the values for the concentration for half-maximal inhibition (IC50) in test [1], in test [2] and in test [3] were 100 to 500 nM, below 100 nM and 500 to 2000 nM, respectively.

Take `CC(=O)N1CC(NS(=O)(=O)c2ccc(C)c(-c3cnc4c(N)ncnn34)c2)C1` [Example 103, N-(1-Acetylazetidin-3-yl)-3-(4-aminoimidazo[1,2-f][1,2,4]triazin-7-yl)-4-methylbenzenesulfonamide trifluoroacetate salt]: the IC50 in test [1] is above 1000 nM; in test [2], below 100 nM; in test [3], 500 to 2000 nM.

In the case of `Cc1ccc(S(=O)(=O)NCC(C)(C)O)cc1-c1cnc2c(NCc3ccccc3)nc(C(F)(F)F)cn12` [Example 519, 3-(8-(Benzylamino)-6-(trifluoromethyl)imidazo[1,2-a]pyrazin-3-yl)-N-(2-hydroxy-2-methylpropyl)-4-methylbenzenesulfonamide], the results for the half-maximal inhibitory concentration (IC50) in test [1] (Homo sapiens), in test [2] and in test [3] were above 1000 nM, 100 to 500 nM and below 100 nM, respectively.

As for `Cc1ccc(S(=O)(=O)NC23CC(c4ncno4)(C2)C3)cc1-c1cnc2c(N)nc(C(F)(F)F)cn12` [Example 295, N-(3-(1,2,4-Oxadiazol-5-yl)bicyclo[1.1.1]pentan-1-yl)-3-(8-amino-6-(trifluoromethyl)imidazo[1,2-a]pyrazin-3-yl)-4-methylbenzenesulfonamide trifluoroacetate salt], the IC50 is above 1000 nM in test [1] (Homo sapiens), below 100 nM in test [2] and 500 to 2000 nM in test [3].

Take `CNC(=O)c1cn2c(-c3cc(S(=O)(=O)N[C@H]4CC[C@H](CC#N)OC4)ccc3C)cnc2c(N)n1` [Example 449, 8-Amino-3-(5-(N-((3S,6R)-6-(cyanomethyl)tetrahydro-2H-pyran-3-yl)sulfamoyl)-2-methylphenyl)-N-methylimidazo[1,2-a]pyrazine-6-carboxamide trifluoroacetate salt]: the figures for the 50% inhibitory concentration (IC50) in test [1] (Homo sapiens), in test [2] and in test [3] were above 1000 nM, below 100 nM and 100 to 500 nM, respectively.

Turning to `Cc1ccc(S(=O)(=O)NCC2(C)COC2)cc1-c1cnc2c(N)nc(C(F)(F)F)nn12` [Example 318, 3-(4-Amino-2-(trifluoromethyl)imidazo[1,2-f][1,2,4]triazin-7-yl)-4-methyl-N-((3-methyloxetan-3-yl)methyl)benzenesulfonamide trifluoroacetate salt], the IC50 in test [1] was below 100 nM; in test [2] it was below 100 nM; in test [3], 100 to 500 nM.

On to `Cc1ccc(S(=O)(=O)N2CC(CO)C2)cc1-c1cnc2c(N)ncnn12` [Example 128, (1-((3-(4-aminoimidazo[2,1-f][1,2,4]triazin-7-yl)-4-methylphenyl)sulfonyl)azetidin-3-yl)methanol], for which the IC50 in test [1] (Homo sapiens) is 100 to 500 nM; in test [2] it was below 100 nM; in test [3], 100 to 500 nM.
